Assay results from publication PMC12596218 (Journal of Lipid Research, 2025).

Biological target: T1, ASBT (Homo sapiens, UniProt Q12908)
T1 construct: stably transfected with the full open reading frames of human NTCP, ASBT, SOAT, OATP1B1, OATP1B3, OATP2B1, and murine Asbt (mAsbt); expressed in transfected cells; host or cells: HEK293 (Flp-In), stably transfected, tetracycline-induced
T1 sequence (Q12908 1-348): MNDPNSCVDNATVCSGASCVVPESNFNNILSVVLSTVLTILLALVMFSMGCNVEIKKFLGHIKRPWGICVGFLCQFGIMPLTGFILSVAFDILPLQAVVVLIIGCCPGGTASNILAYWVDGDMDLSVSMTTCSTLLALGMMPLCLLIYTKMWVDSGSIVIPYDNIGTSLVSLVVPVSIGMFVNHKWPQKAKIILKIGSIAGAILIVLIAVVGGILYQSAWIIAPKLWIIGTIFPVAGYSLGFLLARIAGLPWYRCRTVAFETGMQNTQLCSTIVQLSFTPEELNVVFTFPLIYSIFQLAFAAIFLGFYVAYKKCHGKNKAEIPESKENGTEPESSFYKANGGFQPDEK
Test: Transport inhibition and recovery assay (inhibitor washout) in ASBT-HEK293 cells
Assay type: cell-based
Conditions: 3 μM inhibitor, 5 min preincubation, 10 min uptake of 1 μM [3H]TC

CCCC[C@]1(CC)CS(=O)(=O)c2cc(CNC(CC(=O)O)CC(=O)O)c(OC)cc2[C@@H](c2ccccc2)N1 [linerixibat]
ASBT inhibition with inhibitor present during uptake (inhibitor + [3H]TC): full ASBT inhibition
